# Laboratory results taken from patent publication US5349127A, “Expression of herbicide metabolizing cytochromes P450” (priority 1992, dated 1994).
# Tested on: Arabidopsis thaliana seedlings
# Assay: Seed germination assay of transgenic Arabidopsis (Example 26)
# Format: in vivo
# Parameters: Visual Inhibition Ratings of Seedlings: key: 4: complete inhibition; 1: no inhibition
# Settings: for #R number of resistant seedlings / #S number of sensitive seedlings / % R percent of seedlings which are resistant: 10015 5 ppb
# Description: T2 seed was harvested from selected putative transformants and sown on GM medium containing 50 mg/l kanamycin and that containing 5 ppb 10015. Plates were sealed with filter tape, cold treated for 2 or more days at 4° C., and then incubated for 10 to 20 days at 23° C. under constant illumination as described above. Seedlings were scored as resistant (green, true leaves develop) and sensitive (no true leaves develop). […] The percent of resistant seedlings is inversely proportional with the two selections. Kanamycin is a positive selection for those seedlings that carry the foreign DNA.
# Selected T2 seedlings that were kanamycin resistant were transplanted to soil and were grown to maturity at 21° C. daytime (14 hours) 18° C. nighttime (10 hours) at 65-80% relative humidity. T3 seed was collected, sterilized, and germinated on GM medium containing 50 mg/l kanamycin and that containing 5 ppb 10015. Plates were sealed with filter tape, cold treated for 2 or more days at 4° C., and then incubated for 10 to 20 days at 23° C. under constant illumination as described above. Two of the six plants produced seed that was 100% resistant to kanamycin and 100% sensitive to 10015; they are homozygous for the inserted DNA. The other four parents are heterozygous and show an inverse proportion of kanamycin and 10015 resistant seedlings. […] Therefore, seedlings expressing the P450SU1 gene can be negatively selected.
# Germination assays of homozygous seed on various concentrations of 10015 were performed to assay the relative sensitivity to 10015 produced by the three different promoters and between independent transformants. Seed was sterilized, sown on GM medium with 0, 0.5, 1, 2, 5, 10 and 20 ppb 10015, incubated, and scored as described above. In addition, seedlings are rated on a scale of one to three for the amount of growth.
# Over 500 seed that are homozygous for the P450SU1 coding region were sown on the same plates. The plates were sealed, cold-treated, and incubated as previously described. […] Wild type seedlings were unaffected by the dying transformed seedlings. In addition, when greater than 10,000 seed of a homozygous Cab-SU111 plant was sown on GM medium with 10 ppb 10015, then cold-treated and incubated as described above, eighteen seedlings were resistant to 10015 and were unaffected by neighboring seedlings.
compound,measurement,setting,value
COc1cc(OC)nc(NC(=O)NS(=O)(=O)c2cccc3c2S(=O)(=O)N(C(C)C)C3)n1 [compound 10015],Visual Inhibition Ratings of Seedlings,"12.1.1 Cab-SU111, 1 ppb 10015",1
same,Visual Inhibition Ratings of Seedlings,"12.1.1 Cab-SU111, 2 ppb 10015",1
same,Visual Inhibition Ratings of Seedlings,"12.1.1 Cab-SU111, 5 ppb 10015",2
same,Visual Inhibition Ratings of Seedlings,"12.1.1 Cab-SU111, 10 ppb 10015",4
same,Visual Inhibition Ratings of Seedlings,"12.1.1 Cab-SU111, 20 ppb 10015",4
same,Visual Inhibition Ratings of Seedlings,"12.16.2 Cab-SU111, 1 ppb 10015",1
same,Visual Inhibition Ratings of Seedlings,"12.16.2 Cab-SU111, 2 ppb 10015",1
same,Visual Inhibition Ratings of Seedlings,"12.16.2 Cab-SU111, 5 ppb 10015",1
same,Visual Inhibition Ratings of Seedlings,"12.16.2 Cab-SU111, 10 ppb 10015",1
same,Visual Inhibition Ratings of Seedlings,"12.16.2 Cab-SU111, 20 ppb 10015",1
same,Visual Inhibition Ratings of Seedlings,"12.20.5 Cab-SU111, 1 ppb 10015",1
same,Visual Inhibition Ratings of Seedlings,"12.20.5 Cab-SU111, 2 ppb 10015",2
same,Visual Inhibition Ratings of Seedlings,"12.20.5 Cab-SU111, 5 ppb 10015",3
same,Visual Inhibition Ratings of Seedlings,"12.20.5 Cab-SU111, 10 ppb 10015",4
same,Visual Inhibition Ratings of Seedlings,"12.20.5 Cab-SU111, 20 ppb 10015",4
same,Visual Inhibition Ratings of Seedlings,"13.3.1 SU18, 1 ppb 10015",1
same,Visual Inhibition Ratings of Seedlings,"13.3.1 SU18, 2 ppb 10015",1
same,Visual Inhibition Ratings of Seedlings,"13.3.1 SU18, 5 ppb 10015",2
same,Visual Inhibition Ratings of Seedlings,"13.3.1 SU18, 10 ppb 10015",4
same,Visual Inhibition Ratings of Seedlings,"13.3.1 SU18, 20 ppb 10015",4
same,Visual Inhibition Ratings of Seedlings,"13.4.6 SSU-SU111, 1 ppb 10015",1
same,Visual Inhibition Ratings of Seedlings,"13.4.6 SSU-SU111, 2 ppb 10015",1
same,Visual Inhibition Ratings of Seedlings,"13.4.6 SSU-SU111, 5 ppb 10015",3
same,Visual Inhibition Ratings of Seedlings,"13.4.6 SSU-SU111, 10 ppb 10015",4
same,Visual Inhibition Ratings of Seedlings,"13.4.6 SSU-SU111, 20 ppb 10015",4
same,Visual Inhibition Ratings of Seedlings,"17.1.10 SU18, 1 ppb 10015",1
same,Visual Inhibition Ratings of Seedlings,"17.1.10 SU18, 2 ppb 10015",1
same,Visual Inhibition Ratings of Seedlings,"17.1.10 SU18, 5 ppb 10015",3
same,Visual Inhibition Ratings of Seedlings,"17.1.10 SU18, 10 ppb 10015",4
same,Visual Inhibition Ratings of Seedlings,"17.1.10 SU18, 20 ppb 10015",4
same,Visual Inhibition Ratings of Seedlings,"17.17.3 SU18, 1 ppb 10015",1
same,Visual Inhibition Ratings of Seedlings,"17.17.3 SU18, 5 ppb 10015",1
same,Visual Inhibition Ratings of Seedlings,"17.17.3 SU18, 10 ppb 10015",2
same,Visual Inhibition Ratings of Seedlings,"17.17.3 SU18, 20 ppb 10015",4
same,Visual Inhibition Ratings of Seedlings,"17.74.4 SSU-SU111, 1 ppb 10015",1
same,Visual Inhibition Ratings of Seedlings,"17.74.4 SSU-SU111, 2 ppb 10015",1
same,Visual Inhibition Ratings of Seedlings,"17.74.4 SSU-SU111, 5 ppb 10015",2
same,Visual Inhibition Ratings of Seedlings,"17.74.4 SSU-SU111, 10 ppb 10015",3
same,Visual Inhibition Ratings of Seedlings,"17.74.4 SSU-SU111, 20 ppb 10015",3
same,Visual Inhibition Ratings of Seedlings,"17.92.3 SSU-SU111, 1 ppb 10015",1
same,Visual Inhibition Ratings of Seedlings,"17.92.3 SSU-SU111, 2 ppb 10015",1
same,Visual Inhibition Ratings of Seedlings,"17.92.3 SSU-SU111, 5 ppb 10015",1
same,Visual Inhibition Ratings of Seedlings,"17.92.3 SSU-SU111, 10 ppb 10015",1
same,Visual Inhibition Ratings of Seedlings,"17.92.3 SSU-SU111, 20 ppb 10015",1
same,#R number of resistant seedlings,"T2 seed ID 12-1, pCab-SU111",3
same,#S number of sensitive seedlings,"T2 seed ID 12-1, pCab-SU111",10
same,% R percent of seedlings which are resistant,"T2 seed ID 12-1, pCab-SU111",23%
same,#R number of resistant seedlings,"T2 seed ID 12-2, pCab-SU111",13
same,#S number of sensitive seedlings,"T2 seed ID 12-2, pCab-SU111",0
same,% R percent of seedlings which are resistant,"T2 seed ID 12-2, pCab-SU111",100%
same,#R number of resistant seedlings,"T2 seed ID 12-4, pCab-SU111",12
same,#S number of sensitive seedlings,"T2 seed ID 12-4, pCab-SU111",8
same,% R percent of seedlings which are resistant,"T2 seed ID 12-4, pCab-SU111",60%
same,#R number of resistant seedlings,"T2 seed ID 12-5, pCab-SU111",15
same,#S number of sensitive seedlings,"T2 seed ID 12-5, pCab-SU111",0
same,% R percent of seedlings which are resistant,"T2 seed ID 12-5, pCab-SU111",100%
same,#R number of resistant seedlings,"T2 seed ID 12-6, pCab-SU111",5
same,#S number of sensitive seedlings,"T2 seed ID 12-6, pCab-SU111",9
same,% R percent of seedlings which are resistant,"T2 seed ID 12-6, pCab-SU111",36%
same,#R number of resistant seedlings,"T2 seed ID 12-7, pCab-SU111",9
same,#S number of sensitive seedlings,"T2 seed ID 12-7, pCab-SU111",13
same,% R percent of seedlings which are resistant,"T2 seed ID 12-7, pCab-SU111",40%
same,#R number of resistant seedlings,"T2 seed ID 12-8, pCab-SU111",1
same,#S number of sensitive seedlings,"T2 seed ID 12-8, pCab-SU111",7
same,% R percent of seedlings which are resistant,"T2 seed ID 12-8, pCab-SU111",13%
same,#R number of resistant seedlings,"T2 seed ID 12-9, pCab-SU111",3
same,#S number of sensitive seedlings,"T2 seed ID 12-9, pCab-SU111",9
same,% R percent of seedlings which are resistant,"T2 seed ID 12-9, pCab-SU111",25%
same,#R number of resistant seedlings,"T2 seed ID 12-10, pCab-SU111",9
same,#S number of sensitive seedlings,"T2 seed ID 12-10, pCab-SU111",0
same,% R percent of seedlings which are resistant,"T2 seed ID 12-10, pCab-SU111",100%
same,#R number of resistant seedlings,"T2 seed ID 12-11, pCab-SU111",4
same,#S number of sensitive seedlings,"T2 seed ID 12-11, pCab-SU111",0
same,% R percent of seedlings which are resistant,"T2 seed ID 12-11, pCab-SU111",100%
same,#R number of resistant seedlings,"T3 seed ID 12-1-1, pCab-SU111",0
same,#S number of sensitive seedlings,"T3 seed ID 12-1-1, pCab-SU111",196
same,% R percent of seedlings which are resistant,"T3 seed ID 12-1-1, pCab-SU111",0%
same,#R number of resistant seedlings,"T3 seed ID 12-1-2, pCab-SU111",0
same,#S number of sensitive seedlings,"T3 seed ID 12-1-2, pCab-SU111",191
same,% R percent of seedlings which are resistant,"T3 seed ID 12-1-2, pCab-SU111",0%
same,#R number of resistant seedlings,"T3 seed ID 12-1-3, pCab-SU111",42
same,#S number of sensitive seedlings,"T3 seed ID 12-1-3, pCab-SU111",90
same,% R percent of seedlings which are resistant,"T3 seed ID 12-1-3, pCab-SU111",32%
same,#R number of resistant seedlings,"T3 seed ID 12-1-4, pCab-SU111",80
same,#S number of sensitive seedlings,"T3 seed ID 12-1-4, pCab-SU111",129
same,% R percent of seedlings which are resistant,"T3 seed ID 12-1-4, pCab-SU111",37%
same,#R number of resistant seedlings,"T3 seed ID 12-1-5, pCab-SU111",99
same,#S number of sensitive seedlings,"T3 seed ID 12-1-5, pCab-SU111",177
same,% R percent of seedlings which are resistant,"T3 seed ID 12-1-5, pCab-SU111",36%
same,#R number of resistant seedlings,"T3 seed ID 12-1-6, pCab-SU111",83
same,#S number of sensitive seedlings,"T3 seed ID 12-1-6, pCab-SU111",152
same,% R percent of seedlings which are resistant,"T3 seed ID 12-1-6, pCab-SU111",35%
same,#R number of resistant seedlings,WT,58
same,#S number of sensitive seedlings,WT,5
same,% R percent of seedlings which are resistant,WT,92%
same,Visual Inhibition Ratings of Seedlings,"Wild type, 1 ppb 10015",1
same,Visual Inhibition Ratings of Seedlings,"Wild type, 2 ppb 10015",1
same,Visual Inhibition Ratings of Seedlings,"Wild type, 5 ppb 10015",1
same,Visual Inhibition Ratings of Seedlings,"Wild type, 10 ppb 10015",1
same,Visual Inhibition Ratings of Seedlings,"Wild type, 20 ppb 10015",1
